Source: patent US8921571B2, “Pyrrolysine analogs” (The Ohio State University, priority 2009, dated 2014)
Where a name gives a salt, the structure may show the parent alone. Read-outs that look alike come from different tables or passages of the source.

Key:
[1] = system: UAG stop codon readthrough of mCherry (Lys55) with PylT/PylS genes from Methanosarcina mazei; test: modified mCherry fluorescence protein assay for stop codon readthrough (Example 2); assay type: cell-based, E. coli strain BL21(DE3); conditions: for mCherry production: Terrific Broth
Description: The site-specific incorporation efficiencies of these analogs were measured with a modified fluorescence protein assay using a fluorescent protein as a reporting gene to monitor stop codon readthrough. This approach was made compatible with large scale measurements by 1) using mCherry instead of GFP to reduce the fluorescence background introduced by growth medium, 2) growing the host cells in 24-well plates to facilitate handling of multiple samples and minimize deviation between samples, and 3) measuring the fluorescence intensity of the cell culture in the plates to save the labor of electrophoresis and western blotting.
In this study, the Lys55 codon of mCherry was site-specifically mutated to UAG and inserted into the plasmid pPylST harbouring the pyrrolysine tRNA (PylT) and synthetase (PylS) genes from Methanosarcina mazei. E. coli strain BL21(DE3) transformed with this plasmid was grown in the Terrific Broth medium supplied with 2 mM pyrrolysine analog to be examined. […] These differences are seen in FIG. 3, where the results have been normalized against analog 3. Similar results were observed when the supplied analog concentration varied from 0.5 mM to 20 mM.
As analogs 4-6 were prepared and screened as ˜1:1 mixtures of diastereomers, we carried out further readthrough experiments with isomerically pure samples of 6 prepared from commercially available (R)- and (S)-propargylglycines. The readthrough efficiencies of L-6, D-6 and the enantiomer mixture were tested at various concentrations. […] This is seen in FIG. 4. […] One explanation is that the less efficient incorporable isomer L-6 is a competitive inhibitor of D-6.
The effect of the growth medium pH on the readthrough efficiency of D-6 was investigated using the modified mCherry assay. […] When 2 mM D-6 was used as substrate, the production of full-length mCherry increased as the pH of the growth medium increased. The total amount of produced mCherry peaked at pH 8.5 and dropped a little at pH 9.0 due to a lower cell density.

[2] = system: UAG codon readthrough of mCherry (Lys55 codon mutated to UAG) with PylT/PylS; test: mCherry UAG codon readthrough assay (Example 1); assay type: cell-based, E. coli strain BL21(DE3); conditions: for readthrough of the UAG codon: Terrific Broth medium, varying concentrations
Description: In order to evaluate the UAG codon readthrough efficiency for the two diastereomers, the brightly emitting red fluorescent protein, mCherry, was employed as a reporter. Briefly, the Lys55 codon of this protein was site-specifically mutated to UAG and inserted into the plasmid pPylST harbouring the pyrrolysine tRNA (PylT) and synthetase (PylS) genes. E. coli strain BL21(DE3) transformed with this plasmid was grown in the Terrific Broth medium supplied with either the (S,S)-isomer or (R,S)-isomer at varying concentrations. […] This is seen in the graph of FIG. 1, where the relative fluorescence of the (S,S)-isomer was higher at all concentrations.

recombinant protein = test: incorporation into a recombinant protein; assay type: cell-based
[3] = 2 mM analog, normalized against analog 3, ~1:1 mixture of diastereomers

C#CCC(O)C(=O)NCCCC[C@H](N)C(=O)O (stereo partly drawn) [Formula 5]
mCherry production ([1]; 2 mM analog): no detectable mCherry production

C#CCC(N)C(=O)NCCCC[C@H](N)C(=O)O (stereo partly drawn) [Formula 6]
readthrough efficiency (in words) [1]: best substrate | readthrough efficiency, more efficient than analog 3 [1, 3]: 69%

C#CCCC(=O)NCCCC[C@H](N)C(=O)O [Formula 7]
mCherry production ([1]; 2 mM analog): no detectable mCherry production

N[C@H](CS)C(=O)NCCCC[C@H](N)C(=O)O [Formula (1)]
readthrough of the UAG codon [2]: enabled readthrough of the UAG codon | readthrough efficiency, comparison of the two isomers ([2]; versus (R,S)-isomer, FIG. 1): much better substrate

N[C@@H](CCCCNC(=O)[C@@H](N)CS)C(=O)O [Formula (2)]
readthrough of the UAG codon [2]: enabled readthrough of the UAG codon

C#CCC(N)C(=O)NCCCC[C@H](N)C(=O)O (stereo partly drawn) [Formula (6)]
readthrough efficiency (in words) ([1]; listed as enantiomer mixture): moderate efficiency

[N-]=[N+]=NCC(=O)NCCCC[C@H](N)C(=O)O [Formula (10), N^6-(Azidoacetyl)lysine trifluoroacetate]
readthrough efficiency, fold less efficient than analog 3 [1, 3]: 30 fold

CC1(CC(=O)NCCCC[C@H](N)C(=O)O)N=N1 [Formula (11), N^6-(2-(3-Methyl-3H-diazirin-3-yl)acetyl)lysine trifluoroacetate]
incorporation into a recombinant protein (recombinant protein): incorporated into a recombinant protein

C#CC[C@@H](N)C(=O)NCCCC[C@H](N)C(=O)O [Formula D-6]
readthrough efficiency (in words) [1]: highly efficient | readthrough efficiency, fold more efficient than L-6 ([1]; isomerically pure samples, various concentrations, FIG. 4): 35 fold
